From patent US20030138864A1, “Method for identifying an enzyme to design anti-cancer compounds” (priority 2001, published 2003)
Like-named read-outs stand apart in the source and are kept apart here.

Legend:
[1] = system: HCT116: human colon cancer cell line; assay: Growth inhibition (cytotoxicity, WST-8) of HCT116 cells expressing only a low level of microsomal dipeptidase; type: cell-based; details: Homo sapiens, HCT-116, drug exposure time, read-out: Cytotoxicity (IC50 in nM) HCT116
Method: The activation of the compounds is mediated by microsomal dipeptidase. The inhibitory activities of the compounds is determined against growth of the cells expressing a low level of microsomal dipeptidase, those expressing a high level of microsomal dipeptidase, and granulocyte progenitors that are expanded ex vivo. […] A stable transfectant, HCT116/S5, into which the human microsomal dipeptidase cDNA (herafter called MDP) connected to the CMV promoter was transfected, is used as the cells expressing a high level of microsomal dipeptidase. […] HCT116, HCT116/S5, and granulocyte porogenitors are cultured in the absence and presence of the drugs. […] The IC50 values are determined and compared among HCT116, HCT116/S5, and granulocyte porogenitors.
Transfection of the DNA was carried out by using TransIT-LT2 (PanVera, Madison, USA, Calatog No. MIR2320) according to the manufacturer's instruction. […] The cells that grew in the presence of 1 mg/ml G418 were collected and cultivated in MaCoy5A medium.
By using 96-multi well plates, approximately 2×10^3 cells per well of the HCT116 bearing pRC/CMV and HCT116S5 carrying pRC/CMV-MDP were cultured in 200 μl of McCoy5A medium supplemented with 10% FBS in the presence or absence of the indicated concentrations of the drugs at 37° C. under 5% CO2 in humidified air. The cells were exposed to drugs for 24 hr (taxol, camptothecins and their prodrugs) or 96 hr (DMDC and its compounds). When the drug exposure time to the cells was 24 hr, culture medium containing drugs were removed, and the cells were washed and suspended in the fresh medium without drugs and further cultured at 37° C. under 5% CO2 in humidified air for the indicated days. […] To examine the effects of drugs on granulocyte progenitors, the granulocyte progenitors, which were expanded on a monolayer of MS-5 for 7 days, were collected and washed with RPMI1640 medium. Approximately 5000 cells were suspended in 200 μl of RPMI medium supplemented with 10% FBS and 50 ng/ml of G-CSF in the presence or absence of drugs and cultured in the presence of drugs for 24 hr (taxol, camptothecins and their prodrugs) or 7 days (DMDC and its prodrug) at 37° C. under 5% CO2 in humidified air. When the exposure time of drugs to the cells was 24 hr, the drugs were removed at 24 hr after addition of drugs by washing the cells with the above medium, and the cells were further cultured for 6 days in the same medium without drugs.

[2] = system: HCT116/S5: HCT116 transfected with the human microsomal dipeptidase cDNA; assay: Growth inhibition (cytotoxicity, WST-8) of HCT116/S5 cells expressing a high level of microsomal dipeptidase; type: cell-based; details: for Growth inhibition compared among HCT116, HCT116/S5 and granulocyte progenitor cells: HCT116/S5 (high microsomal dipeptidase) versus HCT116 and granulocyte progenitor cells (very little activity); for IC50: Homo sapiens, HCT-116, drug exposure time, read-out: Cytotoxicity (IC50 in nM) HCT116/S5
Method: (§1) The activation of the compounds is mediated by microsomal dipeptidase. The inhibitory activities of the compounds is determined against growth of the cells expressing a low level of microsomal dipeptidase, those expressing a high level of microsomal dipeptidase, and granulocyte progenitors that are expanded ex vivo. The human colon cancer cell line, HCT116 (American Type Culture Collection No. CCL-247), and granulocyte progenitors are used as the cells expressing only a low level of microsomal dipeptidase. A stable transfectant, HCT116/S5, into which the human microsomal dipeptidase cDNA (herafter called MDP) connected to the CMV promoter was transfected, is used as the cells expressing a high level of microsomal dipeptidase. The dipeptidase cDNA (Satoh et al. Biotechnol. Prog. 10 (2), 134-140 (1994)) and other references) and the cloning procedures as mentioned are known in the art. HCT116, HCT116/S5, and granulocyte porogenitors are cultured in the absence and presence of the drugs. […] The IC50 values are determined and compared among HCT116, HCT116/S5, and granulocyte porogenitors. Although time duration of the exposure of the cells to the drugs varies depending on the cells and drugs, it can be 24 hr, 96 or 168 hr.
Transfection of the DNA was carried out by using TransIT-LT2 (PanVera, Madison, USA, Calatog No. MIR2320) according to the manufacturer's instruction. The resulting transfectants were cultivated in MaCoy5A medium (Sigma, St Louis, USA, Catalog No. M8403) supplemented with 10% (v/v) fetal bovine serum and 1 mg/ml of geneticin disulfate (Wako, Osaka, Japan, Catalog No. 535-24624). The cells that grew in the presence of 1 mg/ml G418 were collected and cultivated in MaCoy5A medium.
By using 96-multi well plates, approximately 2×10^3 cells per well of the HCT116 bearing pRC/CMV and HCT116S5 carrying pRC/CMV-MDP were cultured in 200 μl of McCoy5A medium supplemented with 10% FBS in the presence or absence of the indicated concentrations of the drugs at 37° C. under 5% CO2 in humidified air. The cells were exposed to drugs for 24 hr (taxol, camptothecins and their prodrugs) or 96 hr (DMDC and its compounds). When the drug exposure time to the cells was 24 hr, culture medium containing drugs were removed, and the cells were washed and suspended in the fresh medium without drugs and further cultured at 37° C. under 5% CO2 in humidified air for the indicated days. Then, 10 μl of WST-8 (Cell Counting Kit-8, Wako, Osaka, Japan, Catalog No.343-07623) were added to the cultures, and the cells were further incubated at 37° C. for 1 or 2 hr. Cell growth inhibition was calculated as IC50 values according to optical densities at 450 nm and at 655 nm. To examine the effects of drugs on granulocyte progenitors, the granulocyte progenitors, which were expanded on a monolayer of MS-5 for 7 days, were collected and washed with RPMI1640 medium. Approximately 5000 cells were suspended in 200 μl of RPMI medium supplemented with 10% FBS and 50 ng/ml of G-CSF in the presence or absence of drugs and cultured in the presence of drugs for 24 hr (taxol, camptothecins and their prodrugs) or 7 days (DMDC and its prodrug) at 37° C. under 5% CO2 in humidified air. When the exposure time of drugs to the cells was 24 hr, the drugs were removed at 24 hr after addition of drugs by washing the cells with the above medium, and the cells were further cultured for 6 days in the same medium without drugs. Therafter, 20 μl of WST-1 (Roche Diagnostics, Mannheim, Germany, Catalog No. 1644807) were added to the cultures, and the cells were further incubated at 37° C. for 6 hr. Cell growth inhibition was calculated as IC50 values according to optical densities at 450 nm and at 655 nm.

[3] = Growth inhibition (cytotoxicity, WST-1) of granulocyte progenitors expanded ex vivo (CFU-GM); type: cell-based, human; details: human, drug exposure time; for IC50 at 24 h: then cultured for 6 days without drugs
Method: as §1
CD34-positive mononuclear cells derived from the human umbilical cord blood and bone marrow (Veritas Co, Tokyo, Japan, Catalog No.CB009F, ABM019F) were cultured on a confluent monolayer of MS5 (Itoh, K., et al. Reproducible establishment of hematopoietic supportive stromal cells from murine bone marrow. Exp. Hematol. 17, 145-153 (1989)). Mouse stromal cell lines in alpha MEM medium (Life Technologies, Gaithersburg, USA, Catalog No.12571-0063) supplemented with 10% (v/v) horse serum (HS) (Stem Cell Technologies, Vancouver, Canada, Catalog No. 06750), 10% (v/v) fetal bovine serum (FBS) (Stem Cell Technologies, Vancouver, Canada, Catalog No.06450), 50 ng/ml Flt3 ligand (PeproTec EC., London, UK., Catalog No. 300-19), 100 ng/ml SCF (PeproTech EC, London, UK., Catalog No. 300-07), and 50 ng/ml TPO (PeproTech EC, London, England, Catalog No. 300-18) at 37° C. under 5% CO2 in humidified air. Floating hematopoietic cells were collected and stained by monoclonal antibodies against PerCP-anti-CD34 (BD pharMingen, San Diego, USA, Catalog No.340430), PE-anti-CD13 (BD pharMingen, San Diego, USA, Catalog No. 30525X) and FlTC-anti-15(BD pharMingen, SanDiego, USA, Catalog No. PM30525X). Five microlitter of each antibody was added to a […] of cell suspension and incubated at 4° C. for 25 min. After washing with PBS containing 10% (v/v) FCS, the expression of CD antigens were detected by using FACSCalibur (Becton Dickinson, Franklin Lakes, N.J., USA) according to the FACSCalibur Traing mannual (FACStation ver1.1. Becton Dickinson, Franklin Lakes, N.J., USA.). […]

[4] = 24 hr, then drug removed and cells cultured further

Compound	IC50 [1, 4] [nM]	Growth inhibition compared among HCT116, HCT116/S5 and granulocyte progenitor cells [2]	IC50 at 24 h [3] [nM]	IC50 [2, 4] [nM]	IC50 ([1]; 96 hr) [nM]	IC50 ([2]; 96 hr) [nM]	IC50 at 168 h ([3]; 168 hr (7 days)) [nM]
CC(=O)O[C@H]1C(=O)[C@@]2(C)[C@H]([C@H](OC(=O)c3ccccc3)[C@]3(O)C[C@H](OC(=O)[C@H](O)[C@@H](NC(=O)c4ccccc4)c4ccccc4)C(C)=C1C3(C)C)[C@]1(OC(C)=O)CO[C@@H]1C[C@@H]2O (relative stereo) [Paclitaxel, [2aR-[2aα,4β,4aβ,6β,9α(αR*,βS*),11α,12α,12aα,12bα]]-β-(benzoylamino)-α-hydroxybenzenepropanoic acid 6,12b-bis(acetyloxy)-12-(benzoyloxy)-2a,3,4,4a,5,6,9,10,11,12,12a,12b-dodecahydro-4,11-dihydroxy-4a,8,13,13-tetramethyl-5-oxo-7,11-methano-1H-cyclodeca[3,4]benz[1,2-b]oxet-9-yl ester, reference compound]	2.5	not significantly different	16				
CC[C@@]1(O)C(=O)OCc2c1cc1n(c2=O)Cc2cc3ccccc3nc2-1 [Camptothecin, 4(S)-ethyl-4-hydroxy-1H-pyrano[3′,4′:6,7]indolizino[1,2-b]quinoline-3,14(4H,12H)-dione, reference compound]	19	not significantly different	6.1	5.6			
C=C1[C@H](n2ccc(N)nc2=O)O[C@H](CO)[C@H]1O [DMDC, 2′-deoxy-2′-methylidenecytidine, reference compound]		not significantly different			0.2	0.3	0.07
